Experiment: Thermodynamic equilibrium constant for the complexation of Gd3+
Type: physicochemical
Conditions: complexation of Gd^3+ by the ligand
Text: In the particular case where M represents a gadolinium ion, for the following chemical equilibria: [drawing 3] and DOTA+Gd ? [DOTA-Gd] (equation 2) the thermodynamic equilibrium constant of equation 1 (i.e. for the complexation of Gd^3+ by the ligand of formula I') is 10^14.9 (i.e. log ([…])=14.9), while the thermodynamic equilibrium constant of equation 2 (i.e. for the complexation of Gd^3+ by DOTA) is 10^25.6 (i.e. log ([…])=25.6). Thus, the formulations according to the invention go against the teachings of document U.S. Pat. No. 5,876,695 in particular, since the complex of DOTA with the gadolinium ion is more thermodynamically stable than the active complex.

## O=C(O)CN1CCN(CC(=O)O)CCN(CC(=O)O)CCN(CC(=O)O)CC1 [DOTA, 1,4,7,10-tetraazacyclododecane-1,4,7,10-tetraacetic acid]
  log (Ktherm), thermodynamic equilibrium constant: 25.6

## O=C(CCC(C(=O)O)N1CCN(C(CCC(=O)NCC(O)CO)C(=O)O)Cc2cccc(n2)CN(C(CCC(=O)NCC(O)CO)C(=O)O)CC1)NCC(O)CO (centres unmarked) [ligand of formula I′]
  log (Ktherm), thermodynamic equilibrium constant: 14.9

— US10918743B2, “Contrast medium formulation and related preparation method” (GUERBET, priority 2013, dated 2021)
